Molecular target: T1, human PKCθ full length enzyme (Homo sapiens, UniProt Q04759)
T1 construct: human PKCθ full length enzyme (Panvera Cat# P2996); purchased Panvera P2996
Assay: PKCθ IMAP assay (fluorescence polarization)
Assay type: biochemical
Settings: human PKCθ full length enzyme, IMAP; average value; read-out: IC50 PKCθ IMAP

T1 sequence (Q04759 whole entry): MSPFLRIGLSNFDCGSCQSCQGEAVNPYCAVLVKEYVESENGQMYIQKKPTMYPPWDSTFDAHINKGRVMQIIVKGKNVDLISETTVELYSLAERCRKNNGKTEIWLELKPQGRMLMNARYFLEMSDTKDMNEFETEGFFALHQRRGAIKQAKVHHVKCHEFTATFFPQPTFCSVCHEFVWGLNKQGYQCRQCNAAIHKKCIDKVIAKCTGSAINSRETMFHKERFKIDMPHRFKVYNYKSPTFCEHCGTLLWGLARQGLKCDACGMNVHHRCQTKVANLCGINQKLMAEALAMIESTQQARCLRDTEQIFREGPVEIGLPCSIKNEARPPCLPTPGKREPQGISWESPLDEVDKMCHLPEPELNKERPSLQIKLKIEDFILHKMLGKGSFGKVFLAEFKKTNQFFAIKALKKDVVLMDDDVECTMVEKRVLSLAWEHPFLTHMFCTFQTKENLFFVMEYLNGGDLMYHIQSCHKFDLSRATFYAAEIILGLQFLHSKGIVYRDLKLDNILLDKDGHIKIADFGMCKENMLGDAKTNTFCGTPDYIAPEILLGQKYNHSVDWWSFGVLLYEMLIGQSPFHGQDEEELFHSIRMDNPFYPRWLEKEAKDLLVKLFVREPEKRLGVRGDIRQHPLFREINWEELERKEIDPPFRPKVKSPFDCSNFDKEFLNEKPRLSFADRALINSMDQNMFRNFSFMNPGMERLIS

IC50 | SMILES
22 nM | Cc1c(Nc2c(C#N)cncc2-c2ccoc2)ccc2[nH]ccc12 [Compound 563, 5-(3-furyl)-4-[(4-methyl-1H-indol-5-yl)amino]nicotinonitrile]
98 nM | Cc1c(Nc2c(C#N)cncc2-c2cncn2C)ccc2[nH]ccc12 [Compound 564, 5-(1-methyl-1H-imidazol-5-yl)-4-[(4-methyl-1H-indol-5-yl)amino]nicotinonitrile]
22 nM | Cc1c(Nc2c(C#N)cncc2-c2ccccn2)ccc2[nH]ccc12 [Compound 565, 4′-[(4-methyl-1H-indol-5-yl)amino]-2,3′-bipyridine-5′-carbonitrile]
23 nM | Cc1c(Nc2c(C#N)cncc2-c2ccc(NC(=O)NC3CC3)cc2)ccc2[nH]ccc12 [Compound 566, 1-(4-{5-cyano-4-[(4-methyl-1H-indol-5-yl)amino]pyridin-3-yl}phenyl)-3-cyclopropylurea]
21 nM | CNC(=O)Nc1ccc(-c2cncc(C#N)c2Nc2ccc3[nH]ccc3c2C)cc1 [Compound 567, 1-(4-{5-cyano-4-[(4-methyl-1H-indol-5-yl)amino]pyridin-3-yl}phenyl)-3-methylurea]
56 nM | Cc1c(Nc2c(C#N)cncc2-c2ccc(NC(=O)N(C)C)cc2)ccc2[nH]ccc12 [Compound 568, 3-(4-{5-cyano-4-[(4-methyl-1H-indol-5-yl)amino]pyridin-3-yl}phenyl)-1,1-dimethylurea]
59 nM | Cc1c(Nc2c(C#N)cncc2-c2ccc(NC(=O)N3CCOCC3)cc2)ccc2[nH]ccc12 [Compound 569, N-(4-{5-cyano-4-[(4-methyl-1H-indol-5-yl)amino]pyridin-3-yl}phenyl)morpholine-4-carboxamide]
16 nM | Cc1c(Nc2c(C#N)cncc2-c2ccc([N+](=O)[O-])cc2)ccc2[nH]ccc12 [Compound 570, 4-[(4-methyl-1H-indol-5-yl)amino]-5-(4-nitrophenyl)nicotinonitrile]
16 nM | Cc1c(Nc2c(C#N)cncc2-c2ccc(N)cc2)ccc2[nH]ccc12 [Compound 571, 5-(4-aminophenyl)-4-[(4-methyl-1H-indol-5-yl)amino]nicotinonitrile]
50 nM | Cc1c(Nc2c(C#N)cncc2-c2cccc(N)c2)ccc2[nH]ccc12 [Compound 572, 5-(3-aminophenyl)-4-[(4-methyl-1H-indol-5-yl)amino]nicotinonitrile]
57 nM | Cc1c(Nc2c(C#N)cncc2-c2ccccc2N)ccc2[nH]ccc12 [Compound 573, 5-(2-aminophenyl)-4-[(4-methyl-1H-indol-5-yl)amino]nicotinonitrile]
15 nM | Cc1c(Nc2c(C#N)cncc2-c2ccc(N(C)C)cc2)ccc2[nH]ccc12 [Compound 574, 5-[4-(dimethylamino)phenyl]-4-[(4-methyl-1H-indol-5-yl)amino]nicotinonitrile]
36 nM | Cc1c(Nc2c(C#N)cncc2-c2cccc(N(C)C)c2)ccc2[nH]ccc12 [Compound 575, 5-[3-(dimethylamino)phenyl]-4-[(4-methyl-1H-indol-5-yl)amino]nicotinonitrile]
73 nM | CC(=O)Nc1ccc(-c2cncc(C#N)c2Nc2ccc3[nH]ccc3c2C)cc1 [Compound 576, N-(4-{5-cyano-4-[(4-methyl-1H-indol-5-yl)amino]pyridin-3-yl}phenyl)acetamide]
36 nM | CC(=O)Nc1ccccc1-c1cncc(C#N)c1Nc1ccc2[nH]ccc2c1C [Compound 577, N-(2-{5-cyano-4-[(4-methyl-1H-indol-5-yl)amino]pyridin-3-yl}phenyl)acetamide]
97 nM | CC(=O)Nc1cccc(-c2cncc(C#N)c2Nc2ccc3[nH]ccc3c2C)c1 [Compound 578, N-(3-{5-cyano-4-[(4-methyl-1H-indol-5-yl)amino]pyridin-3-yl}phenyl)acetamide]

IC50 | SMILES
4730 nM | Cc1c(Nc2c(C#N)cncc2-c2ccc(NC(=O)C(C)C)cc2)ccc2[nH]ccc12 [Compound 579, N-(4-{5-cyano-4-[(4-methyl-1H-indol-5-yl)amino]pyridin-3-yl}phenyl)-2-methylpropanamide]
16 nM | CNC(=O)c1ccc(-c2cncc(C#N)c2Nc2ccc3[nH]ccc3c2C)cc1 [Compound 580, 4-{5-cyano-4-[(4-methyl-1H-indol-5-yl)amino]pyridin-3-yl}-N-methylbenzamide]
23 nM | Cc1c(Nc2c(C#N)cncc2-c2cccc3ccccc23)ccc2[nH]ccc12 [Compound 581, 4-[(4-methyl-1H-indol-5-yl)amino]-5-(1-naphthyl)nicotinonitrile]
92 nM | Cc1c(Nc2c(C#N)cncc2-c2ccc3ccccc3c2)ccc2[nH]ccc12 [Compound 582, 4-[(4-methyl-1H-indol-5-yl)amino]-5-(2-naphthyl)nicotinonitrile]
61 nM | Cc1c(Nc2c(C#N)cncc2-c2ccnn2C)ccc2[nH]ccc12 [Compound 583, 4-[(4-methyl-1H-indol-5-yl)amino]-5-(1-methyl-1H-pyrazol-5-yl)nicotinonitrile]
43 nM | Cc1c(Nc2c(C#N)cncc2-c2cn[nH]c2)ccc2[nH]ccc12 [Compound 584, 4-[(4-methyl-1H-indol-5-yl)amino]-5-(1H-pyrazol-4-yl)nicotinonitrile]
88 nM | Cc1c(Nc2c(C#N)cncc2-c2csc3ccccc23)ccc2[nH]ccc12 [Compound 585, 5-(1-benzothiophen-3-yl)-4-[(4-methyl-1H-indol-5-yl)amino]nicotinonitrile]
8.7 nM | Cc1c(Nc2c(C#N)cncc2-c2cc3ccccc3n2C)ccc2[nH]ccc12 [Compound 586, 5-(1-methyl-1H-indol-2-yl)-4-[(4-methyl-1H-indol-5-yl)amino]nicotinonitrile]
36 nM | Cc1c(Nc2c(C#N)cncc2-c2ccc3[nH]ccc3c2)ccc2[nH]ccc12 [Compound 587, 5-(1H-indol-5-yl)-4-[(4-methyl-1H-indol-5-yl)amino]nicotinonitrile]
57 nM | Cc1c(Nc2c(C#N)cncc2-c2ccc3cc[nH]c3c2)ccc2[nH]ccc12 [Compound 588, 5-(1H-indol-6-yl)-4-[(4-methyl-1H-indol-5-yl)amino]nicotinonitrile]
191 nM | Cc1c(Nc2c(C#N)cncc2-c2cnc3ccccc3c2)ccc2[nH]ccc12 [Compound 589, 4-[(4-methyl-1H-indol-5-yl)amino]-5-quinolin-3-ylnicotinonitrile]
972 nM | Cc1c(Nc2c(C#N)cncc2-c2cccc3cccnc23)ccc2[nH]ccc12 [Compound 590, 4-[(4-methyl-1H-indol-5-yl)amino]-5-quinolin-8-ylnicotinonitrile]
19.7 nM | Cc1c(Nc2c(C#N)cncc2-c2ccc3occc3c2)ccc2[nH]ccc12 [Compound 591, 5-(1-benzofuran-5-yl)-4-[(4-methyl-1H-indol-5-yl)amino]nicotinonitrile]
6.9 nM | Cc1c(Nc2c(C#N)cncc2-c2cccc3ncccc23)ccc2[nH]ccc12 [Compound 592, 4-(4-methyl-1H-indol-5-ylamino)-5-(quinolin-5-yl)nicotinonitrile]
120 nM | Cc1c(Nc2c(C#N)cncc2-c2ccc3c(c2)sc2ccccc23)ccc2[nH]ccc12 [Compound 593, 5-(dibenzo[b,d]thiophen-3-yl)-4-(4-methyl-1H-indol-5-ylamino)nicotinonitrile]
38 nM | Cc1c(Nc2c(C#N)cncc2-c2ccc3sccc3c2)ccc2[nH]ccc12 [Compound 594, 5-(benzo[b]thiophen-5-yl)-4-(4-methyl-1H-indol-5-ylamino)nicotinonitrile]

Reference: patent US7781591B2, “Substituted 3-cyanopyridines as protein kinase inhibitors” (Wyeth LLC, priority 2006, dated 2010)
